# Assay results as given in patent publication US20260217735A1, “HETEROCYCLES AND USES THEREOF” (Kumquat Biosciences Inc., priority 2023, published 2026).
# Tests used:
# KRAS G12D = molecular target: T1, KRAS G12D (Homo sapiens, UniProt P01116, G12D); assay: HTRF assay, KRAS G12D interaction with SOS1; format: biochemical; conditions: bins <500 nM / 500 nM to 1000 nM, read-out: Inhibition of KRAS G12D (IC50)
# T1 construct: made in house; host or cells: E. coli, e.g. BL21 (DE3)
# KRAS WT = molecular target: T2, KRAS WT (Homo sapiens, UniProt P01116); assay: HTRF assay, wildtype KRAS interaction with SOS1; format: biochemical; conditions: bins <500 nM / 500 nM to 1000 nM, read-out: Inhibition of KRAS WT (IC50)
# T2 construct: made in house; host or cells: E. coli, e.g. BL21 (DE3)
# KRAS G12V = molecular target: T3, KRAS G12V (Homo sapiens, UniProt P01116, G12V); assay: HTRF assay, KRAS G12V interaction with SOS1; format: biochemical; conditions: bins <500 nM / 500 nM to 1000 nM, read-out: Inhibition of KRAS G12V (IC50)
# T3 construct: made in house; host or cells: E. coli, e.g. BL21 (DE3)
# KRAS G12S = molecular target: T4, KRAS G12S (Homo sapiens, UniProt P01116, G12S); assay: HTRF assay, KRAS G12S interaction with SOS1; format: biochemical; conditions: bins <500 nM / 500 nM to 1000 nM, read-out: Inhibition of KRAS G12S (IC50)
# T4 construct: made in house; host or cells: E. coli, e.g. BL21 (DE3)
# MiaPaca2 cells = assay: Ras cellular assay, growth of cells with K-Ras G12C mutation; format: cell-based; conditions: Homo sapiens, MIA PaCa-2; cell proliferation assay; bins ≤500 nM / >500 nM; read-out: Inhibition of MiaPaca2 Cells (IC50)
# How it was run: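 MIA PaCa-2 cells (K-Ras G12C, about 125-150 cells/well) grown in 0.25% soft agar over a 0.6% agar base, compound added on day 2 at 0.3% final DMSO. Growth read on day 10 by Cell Titer 96 AQueous absorbance (490 nm, reference 660 nm) against time-zero wells; IC50 from four-parameter fit.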
# T3 sequence (P01116 1-188 isoform P01116-2 G12V): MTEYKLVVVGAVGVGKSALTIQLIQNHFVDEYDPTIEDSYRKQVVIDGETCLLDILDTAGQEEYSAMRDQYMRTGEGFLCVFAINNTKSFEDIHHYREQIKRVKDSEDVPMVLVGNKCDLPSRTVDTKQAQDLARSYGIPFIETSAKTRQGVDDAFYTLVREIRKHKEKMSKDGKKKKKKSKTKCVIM
# T4 sequence (P01116 1-188 isoform P01116-2 G12S): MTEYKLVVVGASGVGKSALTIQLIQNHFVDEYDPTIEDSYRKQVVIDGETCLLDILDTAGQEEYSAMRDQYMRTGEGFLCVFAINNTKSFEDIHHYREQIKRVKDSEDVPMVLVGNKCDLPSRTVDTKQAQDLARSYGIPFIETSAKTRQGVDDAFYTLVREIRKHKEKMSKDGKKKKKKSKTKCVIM
# T1 sequence (P01116 1-188 isoform P01116-2 G12D): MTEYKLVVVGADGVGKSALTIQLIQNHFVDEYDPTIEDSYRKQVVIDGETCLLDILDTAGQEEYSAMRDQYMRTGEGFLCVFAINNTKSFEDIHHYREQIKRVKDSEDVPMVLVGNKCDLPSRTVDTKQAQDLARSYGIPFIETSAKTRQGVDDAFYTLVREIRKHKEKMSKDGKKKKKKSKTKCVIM
# T2 sequence (P01116 1-188 isoform P01116-2): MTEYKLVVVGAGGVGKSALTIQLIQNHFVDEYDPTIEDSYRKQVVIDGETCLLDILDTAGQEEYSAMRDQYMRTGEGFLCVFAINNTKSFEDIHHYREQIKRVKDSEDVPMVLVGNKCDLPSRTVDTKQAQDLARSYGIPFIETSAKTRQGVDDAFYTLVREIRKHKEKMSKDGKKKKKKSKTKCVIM
Structure (SMILES),IC50 (KRAS G12D),IC50 (KRAS WT),IC50 (KRAS G12V),IC50 (KRAS G12S),IC50 (MiaPaca2 cells)
"CC[C@H]1N(C(=O)n2cnc(C#N)c2C)C[C@]12CCCCN(c1nc(OC[C@@]34CCCN3C[C@H](F)C4)nc3c(F)c(-c4ccc(F)c5sc(N)c(C#N)c45)c(Cl)cc13)C2 [Compound 152, 1-((1R,4R)-6-(7-(2-amino-3-cyano-7-fluorobenzo[b]thiophen-4-yl)-6-chloro-8-fluoro-2-(((2R,7aS)-2-fluorotetrahydro-1H-pyrrolizin-7a(5H)-yl)methoxy)quinazolin-4-yl)-1-ethyl-2,6-diazaspiro[3.6]decane-2-carbonyl)-5-methyl-1H-imidazole-4-carbonitrile]",< 500 nM,< 500 nM,< 500 nM,< 500 nM,≤ 500 nM
"Cc1nc(C#N)cn1C(=O)N1CC[C@@H](N(C)c2nc(OC[C@@]34CCCN3C[C@H](F)C4)nc3c(F)c(-c4ccc(F)c5sc(N)c(C#N)c45)c(Cl)cc23)[C@H]1C [Compound 158, 1-((2R,3R)-3-((7-(2-amino-3-cyano-7-fluorobenzo[b]thiophen-4-yl)-6-chloro-8-fluoro-2-(((2R,7aS)-2-fluorotetrahydro-1H-pyrrolizin-7a(5H)-yl)methoxy)quinazolin-4-yl)(methyl)amino)-2-methylpyrrolidine-1-carbonyl)-2-methyl-1H-imidazole-4-carbonitrile]",< 500 nM,< 500 nM,< 500 nM,< 500 nM,≤ 500 nM
"CC1C(N(C)c2nc(OC[C@@]34CCCN3C[C@H](F)C4)nc3c(F)c(-c4ccc(F)c5sc(N)c(C#N)c45)c(Cl)cc23)CCN1C(=O)n1cnc(F)n1 (stereo partly drawn) [Compound 160, 2-amino-4-(6-chloro-8-fluoro-4-((1-(3-fluoro-1H-1,2,4-triazole-1-carbonyl)-2-methylpyrrolidin-3-yl)(methyl)amino)-2-(((2R,7aS)-2-fluorotetrahydro-1H-pyrrolizin-7a(5H)-yl)methoxy)quinazolin-7-yl)-7-fluorobenzo[b]thiophene-3-carbonitrile]",< 500 nM,< 500 nM,< 500 nM,< 500 nM,≤ 500 nM
"CCN(c1nc(OC[C@@]23CCCN2C[C@H](F)C3)nc2c(F)c(-c3ccc(F)c4sc(N)c(C#N)c34)c(C(F)(F)F)cc12)[C@@H]1CCN(C(=O)n2cc(C)nc2Cl)[C@@H]1C [Compound 162, 2-amino-4-(4-(((2R,3R)-1-(2-chloro-4-methyl-1H-imidazole-1-carbonyl)-2-methylpyrrolidin-3-yl)(ethyl)amino)-8-fluoro-2-(((2R,7aS)-2-fluorotetrahydro-1H-pyrrolizin-7a(5H)-yl)methoxy)-6-(trifluoromethyl)quinazolin-7-yl)-7-fluorobenzo[b]thiophene-3-carbonitrile]",< 500 nM,< 500 nM,< 500 nM,< 500 nM,≤ 500 nM
"CCN(c1nc(OC[C@@]23CCCN2C[C@H](F)C3)nc2c(F)c(-c3ccc(F)c4sc(N)c(C#N)c34)c(Cl)cc12)[C@@H]1CCN(C(=O)n2ccnc2C)[C@@H]1C [Compound 163, 2-amino-4-(6-chloro-4-(ethyl((2R,3R)-2-methyl-1-(2-methyl-1H-imidazole-1-carbonyl)pyrrolidin-3-yl)amino)-8-fluoro-2-(((2R,7aS)-2-fluorotetrahydro-1H-pyrrolizin-7a(5H)-yl)methoxy)quinazolin-7-yl)-7-fluorobenzo[b]thiophene-3-carbonitrile]",< 500 nM,< 500 nM,< 500 nM,< 500 nM,≤ 500 nM
"Cc1cn(C(=O)N2CC3(CCCCN(c4nc(OC[C@@]56CCCN5C[C@H](F)C6)nc5c(F)c(-c6ccc(F)c7sc(N)c(C#N)c67)c(Cl)cc45)C3)C2)cn1 [Compound 164, 2-amino-4-(6-chloro-8-fluoro-2-(((2R,7aS)-2-fluorotetrahydro-1H-pyrrolizin-7a(5H)-yl)methoxy)-4-(2-(4-methyl-1H-imidazole-1-carbonyl)-2,6-diazaspiro[3.6]decan-6-yl)quinazolin-7-yl)-7-fluorobenzo[b]thiophene-3-carbonitrile]",< 500 nM,< 500 nM,< 500 nM,< 500 nM,≤ 500 nM
"Cc1nc(C#N)cn1C(=O)N1C[C@]2(CCCCN(c3nc(OC[C@@]45CCCN4C[C@H](F)C5)nc4c(F)c(-c5ccc(F)c6sc(N)c(C#N)c56)c(Cl)cc34)C2)[C@H]1C [Compound 165, 1-((1R,4R)-6-(7-(2-amino-3-cyano-7-fluorobenzo[b]thiophen-4-yl)-6-chloro-8-fluoro-2-(((2R,7aS)-2-fluorotetrahydro-1H-pyrrolizin-7a(5H)-yl)methoxy)quinazolin-4-yl)-1-methyl-2,6-diazaspiro[3.6]decane-2-carbonyl)-2-methyl-1H-imidazole-4-carbonitrile]",< 500 nM,< 500 nM,< 500 nM,< 500 nM,≤ 500 nM
"CC[C@@H]1[C@H](N(CC)c2nc(OC[C@@]34CCCN3C[C@H](F)C4)nc3c(F)c(-c4ccc(F)c5sc(N)c(C#N)c45)c(Cl)cc23)CCN1C(=O)n1cnc(F)n1 [Compound 168, 2-amino-4-(6-chloro-4-(ethyl((2R,3R)-2-ethyl-1-(3-fluoro-1H-1,2,4-triazole-1-carbonyl)pyrrolidin-3-yl)amino)-8-fluoro-2-(((2R,7aS)-2-fluorotetrahydro-1H-pyrrolizin-7a(5H)-yl)methoxy)quinazolin-7-yl)-7-fluorobenzo[b]thiophene-3-carbonitrile]",< 500 nM,< 500 nM,< 500 nM,< 500 nM,≤ 500 nM

# Second part, the molecule after the results:
IC50 (KRAS G12D),IC50 (KRAS WT),IC50 (KRAS G12V),IC50 (KRAS G12S),IC50 (MiaPaca2 cells),Structure (SMILES)
< 500 nM,< 500 nM,< 500 nM,< 500 nM,≤ 500 nM,"Cc1nccn1C(=O)N1CC2(CCCCN(c3nc(OC[C@@]45CCCN4C[C@H](F)C5)nc4c(F)c(-c5ccc(F)c6sc(N)c(C#N)c56)c(Cl)cc34)C2)C1 [Compound 154, 2-amino-4-(6-chloro-8-fluoro-2-(((2R,7aS)-2-fluorotetrahydro-1H-pyrrolizin-7a(5H)-yl)methoxy)-4-(2-(2-methyl-1H-imidazole-1-carbonyl)-2,6-diazaspiro[3.6]decan-6-yl)quinazolin-7-yl)-7-fluorobenzo[b]thiophene-3-carbonitrile]"
< 500 nM,< 500 nM,< 500 nM,< 500 nM,≤ 500 nM,"Cc1cn(C(=O)N2CC(CN(C)c3nc(OC[C@@]45CCCN4C[C@H](F)C5)nc4c(F)c(-c5ccc(F)c6sc(N)c(C#N)c56)c(Cl)cc34)(C(F)F)C2)cn1 [Compound 156, 2-amino-4-(6-chloro-4-(((3-(difluoromethyl)-1-(4-methyl-1H-imidazole-1-carbonyl)azetidin-3-yl)methyl)(methyl)amino)-8-fluoro-2-(((2R,7aS)-2-fluorotetrahydro-1H-pyrrolizin-7a(5H)-yl)methoxy)quinazolin-7-yl)-7-fluorobenzo[b]thiophene-3-carbonitrile]"
< 500 nM,< 500 nM,< 500 nM,< 500 nM,≤ 500 nM,"CCN(c1nc(OC[C@@]23CCCN2C[C@H](F)C3)nc2c(F)c(-c3ccc(F)c4sc(N)c(C#N)c34)c(C(F)(F)F)cc12)[C@@H]1CCN(C(=O)n2cc(C#N)nc2C)[C@@H]1C [Compound 159, 1-((2R,3R)-3-((7-(2-amino-3-cyano-7-fluorobenzo[b]thiophen-4-yl)-8-fluoro-2-(((2R,7aS)-2-fluorotetrahydro-1H-pyrrolizin-7a(5H)-yl)methoxy)-6-(trifluoromethyl)quinazolin-4-yl)(ethyl)amino)-2-methylpyrrolidine-1-carbonyl)-2-methyl-1H-imidazole-4-carbonitrile]"
< 500 nM,< 500 nM,< 500 nM,< 500 nM,≤ 500 nM,"Cc1c(C#N)ncn1C(=O)N1C[C@]2(CCCCN(c3nc(OC[C@@]45CCCN4C[C@H](F)C5)nc4c(F)c(-c5ccc(F)c6sc(N)c(C#N)c56)c(Cl)cc34)C2)[C@H]1C [Compound 161, 1-((1R,4R)-6-(7-(2-amino-3-cyano-7-fluorobenzo[b]thiophen-4-yl)-6-chloro-8-fluoro-2-(((2R,7aS)-2-fluorotetrahydro-1H-pyrrolizin-7a(5H)-yl)methoxy)quinazolin-4-yl)-1-methyl-2,6-diazaspiro[3.6]decane-2-carbonyl)-5-methyl-1H-imidazole-4-carbonitrile]"
< 500 nM,< 500 nM,< 500 nM,< 500 nM,≤ 500 nM,"CC(C)[C@@H]1[C@H](N(C)c2nc(OC[C@@]34CCCN3C[C@H](F)C4)nc3c(F)c(-c4ccc(F)c5sc(N)c(C#N)c45)c(Cl)cc23)CCN1C(=O)n1ccnc1 [Compound 169, 4-(4-(((2R,3R)-1-(1H-imidazole-1-carbonyl)-2-isopropylpyrrolidin-3-yl)(methyl)amino)-6-chloro-8-fluoro-2-(((2R,7aS)-2-fluorotetrahydro-1H-pyrrolizin-7a(5H)-yl)methoxy)quinazolin-7-yl)-2-amino-7-fluorobenzo[b]thiophene-3-carbonitrile]"
